Like-named read-outs stand apart in the source and are kept apart here.
Target: T1, HDM2 (Homo sapiens, UniProt Q00987)
T1 construct: Thioredoxin (N); made in house; host or cells: E. coli strain BL21(DE3)Rosetta
Test: HDM2 FRET assay (inhibition of binding of FITC labeled p53-pocket peptide to HDM2)
Conditions: read-out: FRET IC50
In short: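 TR-FRET with 0.5 nM His-tagged recombinant HDM2, 3 nM FITC-labelled p53 peptide and 0.25 nM Tb-anti-His antibody in PBS, 0.01% BSA, 0.01% Tween-20, 0.1% DMSO. IC50 from em520/em495 ratio over 10-point dilutions, 4-parameter logistic fit.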

[1] = 0.5 nM HDM2 (residues 17 to 125), 3nM peptide, two hour incubation at room temperature

T1 sequence (Q00987 17-125): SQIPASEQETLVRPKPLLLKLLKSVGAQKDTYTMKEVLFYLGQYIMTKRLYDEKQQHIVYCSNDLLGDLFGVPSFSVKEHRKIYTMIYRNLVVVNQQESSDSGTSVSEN

Cc1cccc(-c2nc3nc(C(=O)O)nc(N[C@H](C)C4CCC4)c3n2C[C@H]2CC[C@H](C)CC2)c1 [Example 15.14, 6-{[(1R)-1-cyclobutylethyl]amino}-7-[(trans-4-methylcyclohexyl)methyl]-8-(3-methylphenyl)-7H-purine-2-carboxylic acid] was tested. Which IC50 [1] did it give?
Its IC50 is 2.91 nM.

For C[C@@H](Nc1nc(C(=O)O)nc2nc(C(=O)Nc3ccccc3)n(Cc3ccc(C(F)(F)F)cc3)c12)C1CCC1 [Example 10.20, (R)-6-((1-Cyclobutylethyl)amino)-8-(phenylcarbamoyl)-7-(4-(trifluoromethyl)benzyl)-7H-purine-2-carboxylic acid], which IC50 (Table 10) is on record?
Its IC50 is 189 nM.

With CC(c1ccccn1)c1nc2nc(-c3noc(=O)[nH]3)nc(N[C@H](C)C3CCC3)c2n1C[C@H]1CC[C@H](C)CC1 (stereo partly drawn) [Example 22.71, 3-[6-{[(1R)-1-cyclobutylethyl]amino}-7-[(trans-4-methylcyclohexyl)methyl] -8-(1-pyridin-2-ylethyl)-7H-purin-2-yl]-1,2,4-oxadiazol-5(4H)-one] as the molecule, how does the IC50 (Table 22) read?
Its IC50 is 6.49 nM.

CCC1=CCC(Cn2c(-c3cc(C(C)C)ccn3)nc3nc(C(=O)O)nc(N[C@H](C)C4CCC4)c32)CC1 (stereo partly drawn) [Example 18.6, 6-(((R)-1-cyclobutylethyl)amino)-7-((4-ethylcyclohex-3-en-1-yl)methyl)-8-(4-isopropylpyridin-2-yl)-7H-purine-2-carboxylic acid] was tested. Which IC50 (Table 18) did it give?
Its IC50 is 15.9 nM.

C[C@@H](Nc1nc([S+](C)[O-])nc2nc(N3CCOC[C@H]3c3ccccc3)n(C[C@H]3CC[C@H](C)CC3)c12)C1CCC1 (single isomer, unassigned) [Example 14.3] was tested. Which IC50 [1] did it give?
The IC50 was 57.4 nM.

How did the IC50 (Table 20) turn out when C[C@H]1CC[C@H](Cn2c(C3(c4ccccc4)CCC3)nc3nc(-c4n[nH]c(=O)o4)nc(-c4cncc(Cl)c4)c32)CC1 [Example 20.12, 5-[6-(5-chloropyridin-3-yl)-7-[(trans-4-methylcyclohexyl)methyl]-8-(1-phenylcyclobutyl)-7H-purin-2-yl]-1,3,4-oxadiazol-2(3H)-one] was run?
Its IC50 is 9.59 nM.

C[C@@H](Nc1nc(C(=O)O)nc2nc(N(C)[C@@H](C)c3ccccc3)n(Cc3ccc(C(F)(F)F)cc3)c12)C1CCC1 [Example 9.37, 6-{[(1R)-1-cyclobutylethyl]amino}-8-{methyl[(1S)-1-phenylethyl]amino}-7-[4-(trifluoromethyl)benzyl]-7H-purine-2-carboxylic acid] was tested. Which IC50 (Table 9) did it give?
The IC50 was 21.6 nM.

How did the IC50 [1] turn out when COc1ccc(C)cc1-c1nc2nc(C(=O)O)nc(N[C@H](C)C3CCC3)c2n1C[C@H]1CC[C@H](C)CC1 [Example 15.13, 6-{[(1R)-1-cyclobutylethyl]amino}-8-(2-methoxy-5-methylphenyl)-7-[(trans-4-methylcyclohexyl)methyl]-7H-purine-2-carboxylic acid] was run?
Its IC50 is 4.96 nM.

With C[C@@H](Nc1nc(-c2noc(=O)[nH]2)nc2nc(C3CCCC3)n(C[C@H]3CC[C@H](C)CC3)c12)C1CCC1 [Example 21.34, 3-(6-{[(1R)-1-cyclobutylethyl]amino}-8-cyclopentyl-7-[(trans-4-methylcyclohexyl)methyl]-7H-purin-2-yl)-1,2,4-oxadiazol-5(4H)-one] as the molecule, how does the IC50 (Table 21) read?
Its IC50 is 7.76 nM.

C=CCN(c1nc(C(=O)O)nc2nc(NC(C)c3ccccn3)n(Cc3ccc(C(F)(F)F)cc3)c12)[C@H](C)C1CCC1 (stereo partly drawn) [Example 10.31, 6-(allyl((R)-1-cyclobutylethyl)amino)-8-((1-(pyridin-2-yl)ethyl)amino)-7-(4-(trifluoromethyl)benzyl)-7H-purine-2-carboxylic acid] was tested. Which IC50 (Table 10) did it give?
The IC50 was 54.9 nM.

How did the IC50 [1] turn out when C[C@H]1CC[C@H](Cn2c(N3CCOCC34CC4)nc3nc(-c4noc(=O)[nH]4)nc(-c4cccc(Cl)c4)c32)CC1 [Example 16.79, 3-[6-(3-chlorophenyl)-7-[(trans-4-methylcyclohexyl)methyl]-8-(7-oxa-4-azaspiro[2.5]oct-4-yl)-7H-purin-2-yl]-1,2,4-oxadiazol-5(4H)-one] was run?
Its IC50 is 21.6 nM.

Which IC50 [1] does the source give for C[C@H]1CC[C@H](Cn2c(N[C@@H](CO)c3ccccc3)nc3nc(-c4noc(=O)[nH]4)nc(-c4cccc(Cl)c4)c32)CC1 [Example 16.38, 3-{6-(3-chlorophenyl)-8-{[(1R)-2-hydroxy-1-phenylethyl]amino}-7-[(trans-4-methylcyclohexyl)methyl]-7H-purin-2-yl}-1,2,4-oxadiazol-5(4H)-one] here?
The IC50 was 1.95 nM.

C[C@@H](Nc1nc(-c2noc(=O)[nH]2)nc2nc(C(O)(CO)c3ccccc3)n(C[C@H]3CC[C@H](C)CC3)c12)C1CCC1 (single isomer, unassigned) [Example 22.60] was tested. Which IC50 (Table 22) did it give?
Its IC50 is 113 nM.

How did the IC50 [1] turn out when C[C@H]1CC[C@H](Cn2c(N3CCOC[C@H]3c3ccccc3)nc3nc(-c4n[nH]c(=O)o4)nc(-c4cccc(Cl)c4)c32)CC1 [Example 16.21, 5-{6-(3-chlorophenyl)-7-[(trans-4-methylcyclohexyl)methyl]-8-[(3R)-3-phenylmorpholin-4-yl]-7H -purin-2-yl}-1,3,4-oxadiazol-2(3H)-one] was run?
The IC50 was 2.25 nM.

How did the IC50 [1] turn out when C[C@@H](Nc1nc(C(=O)O)nc2nc(-c3cc(C(C)(C)C)ccn3)n(C[C@H]3CC[C@H](C)CC3)c12)C1CCC1 [Example 15.16, 8-(4-tert-butylpyridin-2-yl)-6-{[(1R)-1-cyclobutylethyl]amino}-7-[(trans-4-methylcyclohexyl)methyl]-7H-purine-2-carboxylic acid] was run?
The IC50 was 1.04 nM.

How did the IC50 (Table 11) turn out when C[C@@H](Nc1nc(-c2noc(=O)[nH]2)nc2nc(N3CCCCC3CF)n(C[C@H]3CC[C@H](C)CC3)c12)C1CCC1 (stereo partly drawn) [Example 11.40, 3-(6-{[(1R)-1-cyclobutylethyl]amino}-8-[2-(fluoromethyl)piperidin-1-yl]-7-[(trans-4-methylcyclohexyl)methyl]-7H-purin-2-yl)-1,2,4-oxadiazol-5(2H)-one] was run?
Its IC50 is 8.52 nM.

For Cc1cccc(-c2nc(-c3noc(=O)[nH]3)nc3nc(N4CCOC[C@H]4c4ccccc4)n(C[C@H]4CC[C@H](C)CC4)c23)c1 [Example 16.17, 3-{7-[(trans-4-methylcyclohexyl)methyl]-6-(3-methylphenyl)-8-[(3R)-3-phenylmorpholin-4-yl]-7H-purin-2-yl}-1,2,4-oxadiazol-5(4H)-one], which IC50 [1] is on record?
Its IC50 is 3.96 nM.

With C[C@@H](Nc1nc(-c2noc(=O)[nH]2)nc2nc(C(C)(O)c3nccs3)n(C[C@H]3CC[C@H](C)CC3)c12)C1CCC1 (stereo partly drawn) [Example 22.58, 3-(6-{[(1R)-1-cyclobutylethyl]amino}-8-[1-hydroxy-1-(1,3-thiazol-2-yl)ethyl]-7-[(trans-4-methylcyclohexyl)methyl] -7H-purin-2-yl)-1,2,4-oxadiazol-5(4H)-one] as the molecule, how does the IC50 (Table 22) read?
Its IC50 is 7.21 nM.

How did the IC50 (Table 6) turn out when CCN(CC)c1nc(C(=O)O)nc2nc(-c3cccc(C)c3)n(Cc3ccc(C(F)(F)F)cc3)c12 [Example 6.51, 6-(diethylamino)-8-(3-methylphenyl)-7-[4-(trifluoromethyl)benzyl]-7H-purine-2-carboxylic acid] was run?
The IC50 was 4600 nM.

For C[C@H]1CC[C@H](Cn2c(N3CCO[C@@H]4CCC[C@H]43)nc3nc(-c4n[nH]c(=O)o4)nc(-c4cccc(Cl)c4)c32)CC1 [Example 16.84, 5-{6-(3-chlorophenyl)-8-[(4aR,7aR)-hexahydrocyclopenta [b][1,4]oxazin-4(4aH)-yl]-7-[(trans-4-methylcyclohexyl)methyl]-7H-purin-2-yl}-1,3,4-oxadiazol-2(3H)-one], which IC50 [1] is on record?
The IC50 was 2.47 nM.

For C[C@@H](Nc1nc(-c2noc(=O)[nH]2)nc2nc(N3CCOC4CCCC43)n(C[C@H]3CC[C@H](C)CC3)c12)C1CCC1 (single isomer, unassigned) [Example 11.133], which IC50 (Table 11) is on record?
The IC50 was 0.344 nM.

With Cc1cccc(-c2nc3nc(C(=O)O)nc(NC4CCCC(C)C4)c3n2Cc2ccc(C(F)(F)F)cc2)c1 (stereo not drawn) [Example 6.20, 6-[(3-methylcyclohexyl)amino]-8-(3-methylphenyl)-7-[4-(trifluoromethyl)benzyl]-7H-purine-2-carboxylic acid] as the molecule, how does the IC50 (Table 6) read?
Its IC50 is 567 nM.

Cc1nc(C(C)(F)c2nc3nc(-c4noc(=O)[nH]4)nc(N[C@H](C)C4CCC4)c3n2C[C@H]2CC[C@H](C)CC2)c(C)s1 (single isomer, unassigned) [Example 22.75] was tested. Which IC50 (Table 22) did it give?
Its IC50 is 5.48 nM.

Cc1nc(-c2cccc(-c3nc(-c4noc(=O)[nH]4)nc4nc(N5CCOC[C@H]5c5ccccc5)n(C[C@H]5CC[C@H](C)CC5)c34)c2)no1 [Example 16.112, 3-{7-[(trans-4-methylcyclohexyl)methyl]-6-[3-(5-methyl-1,2,4-oxadiazol-3-yl)phenyl]-8-[(3R)-3-phenylmorpholin-4-yl]-7H-purin-2-yl}-1,2,4-oxadiazol-5(4H)-one] was tested. Which IC50 [1] did it give?
The IC50 was 18 nM.

How did the IC50 [1] turn out when C[C@@H]1CNCCN1c1nc2nc(-c3noc(=O)[nH]3)nc(-c3cccc(Cl)c3)c2n1C[C@H]1CC[C@H](C)CC1 [Example 16.54, 3-{6-(3-chlorophenyl)-7-[(trans-4-methylcyclohexyl)methyl]-8-[(2R)-2-methylpiperazin-1-yl]-7H-purin-2-yl}-1,2,4-oxadiazol-5(4H)-one] was run?
Its IC50 is 59 nM.

With C[C@@H](Nc1nc(-c2noc(=O)[nH]2)nc2nc(N(C)Cc3cscn3)n(C[C@H]3CC[C@H](C)CC3)c12)C1CCC1 [Example 11.74, 3-(6-{[(1R)-1-cyclobutylethyl]amino}-7-[(trans-4-methylcyclohexyl)methyl]-8-[methyl(1,3-thiazol-4-ylmethyl)amino]-7H-purin-2-yl)-1,2,4-oxadiazol-5(2H)-one] as the molecule, how does the IC50 (Table 11) read?
Its IC50 is 133 nM.

Which IC50 [1] does the source give for C[C@H]1CC[C@H](Cn2c(N3CCOC[C@H]3c3ccccc3)nc3nc(-c4noc(=O)[nH]4)nc(C4CCOCC4)c32)CC1 [Example 16.167, 3-{7-[(trans-4-methylcyclohexyl)methyl]-8-[(3R)-3-phenylmorpholin-4-yl]-6-(tetrahydro-2H-pyran-4-yl)-7H-purin-2-yl}-1,2,4-oxadiazol-5(4H)-one] here?
Its IC50 is 46.6 nM.
